From patent US9487489B2, “Halogen-substituted pyrazole derivatives as pest-control agents” (BAYER CROPSCIENCE AKTIENGESELLSCHAFT, priority 2013, dated 2016)

Tests used:
[1] = test system: adult houseflies (Musca domestica); test: Musca domestica test (MUSCDO); format: in vivo; conditions: application rate 100 ppm; after 2 days
Description: F. Musca domestica Test (MUSCDO)
(§1) Solvent: dimethyl sulphoxide
(§2) To produce a suitable preparation of active compound, 10 mg of active compound are mixed with 0.5 ml of dimethyl sulphoxide, and the concentrate is diluted with water to the desired concentration.
Vessels containing a sponge treated with sugar solution and the active compound preparation of the desired concentration are populated with 10 adult houseflies (Musca domestica).
After 2 days, the kill in % is determined. 100% means that all of the flies have been killed; 0% means that none of the flies have been killed.

[2] = test system: engorged adult female cattle ticks (Boophilus microplus); test: Boophilus microplus injection test (BOOPMI Inj); format: in vivo; conditions: application rate 20 μg/animal; injection into abdomen; assessed after 7 days
Description: C. Boophilus microplus-injection Test (BOOPMI Inj)
as §1
To produce a suitable preparation of active compound, 10 mg of active compound are mixed with 0.5 ml of solvent, and the concentrate is diluted with solvent to the desired concentration.
1 μl of the active compound solution is injected into the abdomen of 5 engorged adult female cattle ticks (Boophilus microplus). The animals are transferred into dishes and kept in a climate-controlled room.
The activity is assessed after 7 days by laying of fertile eggs. Eggs whose fertility is not visible from the outside are stored in a climate-controlled cabinet until the larvae hatch after about 42 days. An efficacy of 100% means that none of the ticks has laid any fertile eggs; 0% means that all eggs are fertile.

[3] = test system: L1 larvae of the Australian sheep blowfly (Lucilia cuprina); test: Lucilia cuprina test (LUCICU); format: in vivo; conditions: application rate 100 ppm; after 2 days
Description: E. Lucilia cuprina Test (LUCICU)
as §1, §2
About 20 L1 larvae of the Australian sheep blowfly (Lucilia cuprina) are transferred into a test vessel containing minced horsemeat and the active compound preparation of the desired concentration.
After 2 days, the kill in % is determined 100% means that all of the larvae have been killed; 0% means that none of the larvae have been killed.

[4] = test system: caterpillars of the armyworm (Spodoptera frugiperda); test: Spodoptera frugiperda spray test (SPODFR); format: in vivo; conditions: maize leaf discs, after 7 days
In short: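 Maize leaf discs sprayed with compound in acetone/DMF with alkylaryl polyglycol ether emulsifier (1000 ppm) in water, dried, then infested with armyworm caterpillars. Mortality (%) scored after 7 days; 100% = all caterpillars killed, 0% = none killed.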

[5] = test system: larvae of the mustard beetle (Phaedon cochleariae); test: Phaedon cochleariae spray test (PHAECO); format: in vivo; conditions: Chinese cabbage leaf discs, after 7 days
In short: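 Compound dissolved in acetone/dimethylformamide with alkylaryl polyglycol ether emulsifier, made up in water containing 1000 ppm emulsifier, then diluted to test concentrations and sprayed against mustard beetle larvae. Efficacy (% larvae killed) scored after 7 days.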

[6] = test system: adult cat fleas (Ctenocephalides felis); test: Ctenocephalides felis oral test (CTECFE); format: in vivo; conditions: application rate 100 ppm in citrated cattle blood; after 2 days
Description: D. Ctenocephalides felis-oral Test (CTECFE)
as §1
To produce a suitable preparation of active compound, 10 mg of active compound are mixed with 0.5 ml of dimethyl sulphoxide. Dilution with citrated cattle blood gives the desired concentration.
About 20 unfed adult cat fleas (Ctenocephalides felis) are placed into a chamber which is closed at the top and bottom with gauze. A metal cylinder whose bottom end is closed with a parafilm is placed onto the chamber. The cylinder contains the blood/active ingredient preparation, which can be imbibed by the fleas through the parafilm membrane.
After 2 days, the kill in % is determined 100% means that all of the fleas have been killed; 0% means that none of the fleas have been killed.

[7] = test system: greenhouse red spider mite (Tetranychus urticae); test: Tetranychus urticae spray test, OP-resistant (TETRUR); format: in vivo; conditions: bean leaf discs, after 6 days
In short: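 Bean leaf discs carrying all stages of OP-resistant Tetranychus urticae were sprayed with compound formulated in acetone/dimethylformamide and diluted in water with 1000 ppm alkylaryl polyglycol ether emulsifier. Mortality (% efficacy, 100% = all mites killed) scored after 6 days.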

[8] = logP determination by HPLC on a reversed-phase column (C18), EEC Directive 79/831 Annex V.A8; format: physicochemical
In short: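 Retention on a C18 reversed-phase column (Zorbax Eclipse Plus, 1.8 micron) was used, eluting with acetonitrile/water, each containing formic acid. The gradient ran from 10% to 95% acetonitrile over 4.25 min, then held 1.25 min, at 55° C and 2.0 ml/min, with MS detection.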

[9] = test system: adult dog ticks (Rhipicephalus sanguineus); test: Rhipicephalus sanguineus in vitro contact test with adult brown dog ticks (T2); conditions: after 48 h
Description: T2. Rhipicephalus sanguineus-in vitro Contact Tests with Adult Brown Dog Ticks
For the coating of the test tubes, initially 9 mg of active compound are dissolved in 1 ml of acetone p.a. and then diluted with acetone p.a. to the desired concentration. By turning and rocking on an orbital shaker (2 h of rocking rotation at 30 rpm), 250 μl of the solution are distributed homogeneously on the internal walls and the floor of a 25 ml test tube. At 900 ppm active compound solution and 44.7 cm^2 internal surface, an area dose of 5 μg/cm^2 is achieved for homogeneous distribution.
After evaporation of the solvent, the tubes are populated with 5-10 adult dog ticks (Rhipicephalus sanguineus), sealed with a perforated plastic lid and incubated in a horizontal position in the dark at room temperature and ambient humidity. After 48 h, the efficacy is determined. To this end, the ticks are knocked to the floor of the tube and incubated on a hotplate at 45-50° C. for at most 5 min Ticks which remain motionless on the floor or move in an uncoordinated manner such that they are not able to deliberately avoid the heat by climbing upwards are considered to be dead or moribund.
An efficacy of 100% means that all ticks were dead or moribund. 0% efficacy means that none of the ticks had been damaged.

[10] = test system: adult cat fleas (Ctenocephalides felis); test: Ctenocephalides felis in vitro contact test with adult cat fleas (T1); conditions: after 48 h
In short: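 Test compound was dissolved in acetone p.a. (9 mg per 1 ml) and diluted as needed. 250 μl was spread evenly over the inner walls and floor of a 25 ml test tube by rotating on an orbital shaker for 2 h at 30 rpm. Once the solvent evaporated, 5-10 adult Ctenocephalides felis were added. Tubes were capped with a perforated plastic lid and kept horizontal at room temperature and ambient humidity.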

[11] = HPLC on reversed-phase column (C18), acetonitrile/water with formic acid, EEC Directive 79/831 Annex V.A8

Row | Compound | efficacy (kill in %) [1] [%] | efficacy (laying of fertile eggs) [2] [%] | efficacy (kill in %) [3] [%] | efficacy in % ([4]; application rate 100 g/ha) [%] | efficacy in % ([5]; application rate 500 g/ha) [%] | efficacy (kill in %) [6] [%] | efficacy in % ([7]; application rate 100 g/ha) [%] | efficacy in % ([5]; application rate 100 g/ha) [%] | logP [8, 11] | efficacy in % ([4]; application rate 500 g/ha) [%] | efficacy in % ([7]; application rate 500 g/ha) [%] | logP ([8]; HPLC, reversed-phase C18, acetonitrile (0.1% formic acid)/water (0.09% formic acid) gradient) | efficacy (dead or moribund ticks) ([9]; application rate 1 μg/cm^2) [%] | efficacy (dead or moribund ticks) ([9]; application rate 5 μg/cm^2) [%] | efficacy (dead or moribund fleas) ([10]; application rate 1 μg/cm^2) [%] | efficacy (dead or moribund fleas) ([10]; application rate 5 μg/cm^2) [%]
1 | Cn1nc(C(F)(F)C(F)(F)F)c(C(F)(F)F)c1-n1cc(-c2cc(C(=O)NC3(C#N)CC3)cc(F)c2F)cn1 [Ic-64] | 80 | 100 | 100 | 100 | 100 | 100 | 100 |  |  |  |  |  |  |  |  | 
2 | O=C(NC1CC1)c1cc(-c2cnn(-c3c(C(F)(F)F)c(C(F)(F)C(F)(F)F)nn3-c3ccccc3)c2)ccc1Cl [Ic-6] | 90 | 100 | 100 | 100 |  | 100 |  | 100 | 4.54 |  |  |  |  |  |  | 
3 | Cn1nc(C(F)(F)C(F)(F)F)c(C(F)(F)F)c1-n1cc(-c2cc(F)cc(C(=O)NC3(C#N)CC3)c2)cn1 [Ic-38] | 100 | 100 | 100 |  | 100 | 100 |  |  |  | 100 |  |  |  |  |  | 
4 | Cn1nc(C(F)(F)C(F)(F)F)c(C(F)(F)F)c1-n1cc(-c2ccnc(C(=O)NC3(C#N)CC3)c2)cn1 [Ic-76] | 80 | 100 | 100 |  | 100 | 100 |  |  |  | 100 | 80 |  |  |  |  | 
5 | Cn1nc(C(F)(F)C(F)(F)F)c(C(F)(F)F)c1-n1cc(-c2cc(F)cc(C(=O)NC3CC3)c2)cn1 [Ic-39] | 100 | 100 | 100 | 100 | 100 | 100 | 100 |  |  | 100 |  |  |  |  |  | 
6 | Cn1nc(C(F)(F)C(F)(F)F)c(C(F)(F)F)c1-n1cc(-c2cc(C(=O)NC3(C#N)CC3)ccc2Cl)cn1 [Ic-45] | 100 |  | 100 |  | 100 | 100 |  |  |  | 100 |  |  |  |  |  | 
7 | Cc1ccc(C(=O)NC2(C#N)CC2)cc1-c1cnn(-c2c(C(F)(F)F)c(C(F)(F)C(F)(F)F)nn2C)c1 [Ic-58] | 80 | 100 | 100 |  | 100 | 100 |  |  |  |  |  |  |  |  |  | 
8 | Cn1nc(C(F)(F)C(F)(F)F)c(C(F)(F)F)c1-n1cc(-c2ccc(Cl)c(C(=O)Nc3ccccc3)c2)cn1 [Ic-136] | 90 | 100 | 100 |  | 100 | 100 |  |  |  | 100 | 100 |  |  |  |  | 
9 | Cn1nc(C(F)(F)C(F)(F)F)c(C(F)(F)F)c1-n1ccc(-c2ccc(Cl)c(C(=O)NC3(C#N)CC3)c2)n1 [Id-1] | 100 | 100 | 100 | 100 |  | 100 |  | 100 |  |  |  | 3.87 |  |  |  | 
10 | Cn1nc(C(F)(F)C(F)(F)F)c(C(F)(F)F)c1-n1cc(-c2ccc(Cl)c(C(=O)NCc3cccs3)c2)cn1 [Ic-10] |  | 100 | 100 | 100 |  | 98 | 100 | 100 | 4.40 |  |  |  |  |  |  | 
11 | Cc1cc(C(=O)NC2CC2)cc(-c2cnn(-c3c(C(F)(F)F)c(C(F)(F)C(F)(F)F)nn3C)c2)c1 [Ic-54] |  | 100 | 100 |  | 100 | 100 |  |  |  |  |  |  | 100 | 100 |  | 
12 | N#CC1(NC(=O)c2cc(-c3cnn(-c4c(C(F)(F)F)c(C(F)(F)C(F)(F)F)nn4-c4ccccc4)c3)ccc2Cl)CC1 [Ic-7] | 100 | 100 | 100 | 100 |  | 100 |  | 100 | 4.43 |  |  |  |  |  |  | 
13 | Cn1nc(C(F)(F)C(F)(F)F)c(C(F)(F)F)c1-n1cc(-c2cccc(C(=O)NC3CC3)c2F)cn1 [Ic-33] | 100 | 100 | 100 |  | 100 | 100 |  |  |  | 83 |  |  |  |  |  | 
14 | Cc1ccc(C(=O)NC2CC2)cc1-c1cnn(-c2c(C(F)(F)F)c(C(F)(F)C(F)(F)F)nn2C)c1 [Ic-57] | 100 |  | 100 |  |  | 100 |  | 83 |  |  |  |  |  |  |  | 
15 | Cn1nc(C(F)(F)C(F)(F)F)c(C(F)(F)F)c1-n1cc(-c2cc(C(=O)NC3(C#N)CC3)cc(C(F)(F)F)c2)cn1 [Ic-60] | 100 | 100 | 100 |  | 100 | 100 |  |  |  | 100 |  |  |  |  |  | 
16 | Cc1nn(-c2c(C(F)(F)F)c(C(F)(F)C(F)(F)F)nn2C)cc1-c1ccc(Cl)c(C(=O)NC2CC2)c1 [Ic-12] | 100 | 100 | 100 | 100 |  | 100 |  | 100 | 3.97 |  |  |  |  |  | 100 | 100
17 | COc1cc(C(=O)NC2CC2)cc(-c2cnn(-c3c(C(F)(F)F)c(C(F)(F)C(F)(F)F)nn3C)c2)c1 [Ic-62] | 100 | 100 | 100 |  | 100 | 95 |  |  |  | 100 |  |  |  |  |  | 
